Key:
Experiment in all cases: relative viability (nuclei count vs DMSO), 5 days (fraction); higher = more cells survive
[1] = compound: C1=CC=C2C(=C1)N=C(S2)C(C#N)C3=NC(=NC=C3)NCCC4=CN=CC=C4 + N=C(N)NC(=N)NCCc1ccccc1 [Phenformin] (partner 250 µM)
Procedure, shortened: (§1)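 Values are medians from duplicate plates. Each reflects relative viability, defined as the nuclei count of treated wells over that of vehicle wells. Lung cancer cell lines in 1536-well plates were pin-tool dosed one day after seeding with one drug alone or with a fixed anchor-drug dose plus five library-drug doses (not always all listed) in √10 steps, then fixed, stained and imaged at 4× after 5 days.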

NVP-TAE684 + Alpelisib = compound: COc1cc(N2CCC(N3CCN(C)CC3)CC2)ccc1Nc1ncc(Cl)c(Nc2ccccc2S(=O)(=O)C(C)C)n1 [NVP-TAE684] + Cc1nc(NC(=O)N2CCC[C@H]2C(N)=O)sc1-c1ccnc(C(C)(C)C(F)(F)F)c1 [Alpelisib] (partner 2 µM)
Procedure, shortened: as §1

Vandetanib + Dasatinib = compound: COc1cc2/c(=N/c3ccc(Br)cc3F)nc[nH]c2cc1OCC1CCN(C)CC1 [Vandetanib] + Cc1nc(Nc2ncc(C(=O)Nc3c(C)cccc3Cl)s2)cc(N2CCN(CCO)CC2)n1 [Dasatinib] (partner 0.075 µM)
Procedure, shortened: as §1

Vandetanib + AZD7762 = compound: COc1cc2/c(=N/c3ccc(Br)cc3F)nc[nH]c2cc1OCC1CCN(C)CC1 [Vandetanib] + NC(=O)Nc1cc(-c2cccc(F)c2)sc1C(=O)N[C@H]1CCCNC1 [AZD7762] (partner 0.2 µM)
Procedure, shortened: as §1

| Cell Line | relative viability ([1]; first compound 0.005 µM) | relative viability ([1]; first compound 0.01581 µM) | relative viability ([1]; first compound 0.05 µM) | relative viability ([1]; first compound 0.1581 µM) | relative viability ([1]; first compound 0.5 µM) | relative viability (NVP-TAE684 + Alpelisib; first compound 0.2 µM) | relative viability (NVP-TAE684 + Alpelisib; first compound 0.6325 µM) | relative viability (NVP-TAE684 + Alpelisib; first compound 2 µM) | relative viability (Vandetanib + Dasatinib; first compound 0.02 µM) | relative viability (Vandetanib + Dasatinib; first compound 0.06325 µM) | relative viability (Vandetanib + Dasatinib; first compound 0.2 µM) | relative viability (Vandetanib + Dasatinib; first compound 0.6325 µM) | relative viability (Vandetanib + Dasatinib; first compound 2 µM) | relative viability (Vandetanib + AZD7762; first compound 0.02 µM) | relative viability (Vandetanib + AZD7762; first compound 0.06325 µM) | relative viability (Vandetanib + AZD7762; first compound 0.2 µM) | relative viability (Vandetanib + AZD7762; first compound 0.6325 µM) | relative viability (Vandetanib + AZD7762; first compound 2 µM) |
| --- | --- | --- | --- | --- | --- | --- | --- | --- | --- | --- | --- | --- | --- | --- | --- | --- | --- | --- |
| EMC-BAC-2 | 0.413 | 0.517 | 0.516 | 0.657 | 0.368 | 0.704 | 0.759 | 0.436 | 0.332 | 0.312 | 0.327 | 0.295 | 0.3 | 1.08 | 1.08 | 1.12 | 1.11 | 0.973 |
| EPLC-272H | 0.225 | 0.243 | 0.275 | 0.286 | 0.311 | 0.799 |  | 0.9 | 0.301 |  | 0.415 | 0.352 | 0.321 | 0.23 | 0.428 | 0.244 | 0.201 | 0.189 |
| H3255 | 0.385 | 0.354 | 0.402 | 0.62 | 0.366 | 0.716 | 0.608 | 0.491 | 0.364 | 0.358 | 0.325 | 0.252 | 0.264 | 0.898 | 0.812 | 0.824 | 0.636 | 0.377 |
| HARA | 0.474 | 0.484 | 0.488 | 0.46 | 0.465 | 0.884 | 0.719 | 0.346 | 0.305 | 0.264 | 0.239 | 0.237 | 0.303 | 0.262 | 0.448 | 0.396 | 0.18 | 0.312 |
| HCC-15 | 0.427 | 0.437 | 0.455 | 0.579 | 0.401 | 0.865 | 0.933 | 0.678 | 0.583 | 0.572 | 0.632 | 0.639 | 0.606 | 1.29 | 1.04 | 1.18 | 1.33 | 1.15 |
| HCC-44 | 0.271 | 0.183 | 0.211 | 0.296 | 0.162 | 0.835 | 0.784 | 0.313 |  |  |  |  |  | 0.982 | 1.04 | 1.11 | 1.03 | 1.04 |
| HCC-78 | 0.677 | 0.635 | 0.656 | 0.814 | 0.741 | 0.319 | 0.198 | 0.282 | 0.428 | 0.286 | 0.362 | 0.451 | 0.336 | 0.591 | 0.669 | 0.596 | 0.645 | 0.609 |
| HCC-366 | 0.551 | 0.615 | 0.547 | 0.722 | 0.601 | 0.758 | 0.342 | 0.0918 | 0.6 | 0.625 | 0.663 | 0.561 | 0.637 | 0.205 | 0.317 | 0.284 | 0.243 | 0.286 |
| HCC-827 | 0.376 | 0.455 | 0.358 | 0.46 | 0.422 | 1.05 | 1.05 | 0.822 | 0.489 | 0.276 | 0.284 | 0.152 | 0.13 | 0.211 | 0.204 | 0.165 | 0.126 | 0.124 |

From the supplement of paper PMC10307832
